Measured values published in patent publication US20190216831A1 (priority 2015, published 2019).
pIC50: −log10 of the molar value.

Legend:
EIAVWYO [1] = test: EIAV replication kinetics in equine dermal cells, RT qPCR of culture supernatants; assay type: cell-based, Equine infectious anemia virus; settings: for EIAV viral replication decreased to (from 10^8) / EIAV viral replication reduced to (from 10^8): 10 μM; for EIAV viral replication decreased to (from 10^8): day 15 post infection; for EIAV viral replication reduced to (from 10^8): day 15 and 20 post infection
Procedure: Equine dermal cells (3×10^4 cells per well of a 96-well plate) were seeded and incubated in complete media (as described above for NEV infections) under 5% CO2 at 37° C., for 24 h to 72 hours prior to infection. The antiviral effect adefovir dipivoxil, as well as other are antiviral drugs approved by FDA or EMA such as Zidovudine (nucleoside reverse transcription inhibitor), Nevirapine (non-nucleoside reverse transcription inhibitor), Indinavir sulphate (a HIV-1 protease inhibitor), Darunavir Ethanolate (a HIV-1 protease inhibitor), Daclastavir (HCV NS5A inhibitor), Cyclosporin A (immunosuppressive agent) and the drug that is being evaluated in pre-clinical/clinical assays as antivirals, such as Tenofovir (a nucleoside reverse transcription inhibitor), was evaluated (FIGS. 4A and 4B).
The drugs mentioned above were also tested as antivirals for EIAV. For that cells were pre-treated with drugs at two different concentrations 1 or 10 μM for 1 hour in triplicates. Cells were then infected with EIAVWYO (3 MOI for 2 hours). After infection fresh media and drugs were replaced and cells incubated for 5, 10, 15 and 20 days. The EIAVWYO replication was evaluated by quantifying EIAV viral genome in culture supernatants by means of RT qPCR. FIGS. 4A and 4B show the effect of the different drugs in EIAV replication kinetics. […] Virus was only recovered at low levels from treated cells in one of three replicate at day 5 (10 viral particles/mL) and another of three replicates at day 15 (100 viral particles/mL). The differences observed between the treated and not treated infected cells were statistically significant for p<0.001.

in vitro = settings: horse (equine)
Procedure: For that, ED cells (10^5 cells/cm^2) were seeded as mentioned above in 96-well plates. […] To determine drug CC50, twelve different concentrations of 4, 6, 9, 13.5, 20.250, 30.370, 45.560, 68.340, 102.520, 153.770, 230.660 and 2000 μM were performed in quintuplicates per each drug concentration. Cell viability was assessed by using the PrestoBlue reagent as mention above for IC50 analysis and incubated for 24 hours.
For that, ED cells (10^5 cells/cm^2) were seeded as mentioned above in 96-well plates. […] To determine drug CC50, ten different 1:1.3 serial dilutions from 25.39 to 350 μM were performed in quintuplicates per each drug concentration. Cell viability was assessed by using the PrestoBlue reagent as mention above for IC50 analysis and incubated for 24 hours.

EHV-1 [2] = test: EHV-1 viral particles in supernatant of MacF macrophage-like cells by qPCR; assay type: cell-based, Equine herpesvirus 1; settings: Equus caballus, 72 h, day 3 post infection
Procedure: (§1) Antiviral activity of Adefovir dipivoxil was also evaluated in macrophage like cell lines. […] (Selleckchem, Germany). The pre-treatment with the drug preceded the infection.
(§2) Infections studies, viral particle quantification and cell viability assays were performed as described above for antiviral assays in ED cells.
(§3) Antiviral activity of Tenofovir disoproxil fumarate was also evaluated in macrophage like cell lines. […] (Selleckchem, Germany). The pre-treatment with the drug preceded the infection.
(§4) EHV-1 cell infections, viral particle production and cell viability assays were assayed as described in example 5.

EHV-1 [3] = test: EHV-1 viral particles in supernatant of ED cells by qPCR; assay type: cell-based, Equine herpesvirus 1; settings: Equus caballus, 72 h, day 3 post infection
Procedure: (Selleckchem, Germany). The pre-treatment with the drug preceded the infection.
A standard curve of an EHV-1 synthetic DNA was used. To obtain the standard curve, seven 1:10 dilutions of the synthetic DNA in duplicates were tested in parallel. Samples were tested in triplicates. The standard curve obtained (with R2 0.995, Efficiency 91.7%) allowed us to quantify the EHV-1 viral particles produced into the cell culture media.

EHV-1 [4] = test: PrestoBlue cell viability of EHV-1 infected MacF macrophage-like cells; assay type: cell-based, Equine herpesvirus 1; settings: Equus caballus, 144 h, day 6 post infection, average of two independent experiments
Procedure: as §1, §2, §3, §4

EHV-1 [5] = settings: ED cells
Procedure: (§6) Equine Dermal cells (ATCC CCL57) (10^5 cells/cm^2) were seeded in 96 well plates 24 to 72 hours before infection in complete media and incubated in a humid chamber at 37° C. and 5% CO2 until 95%-99% confluent monolayers were attained. Complete media was composed of DMEM medium (Gibco, Thermofisher Scientific) with 10% of Inactivated Fetal bovine serum (Gibco, Thermofisher Scientific), 1% of Glutamax (Gibco, Life Technologies) and 1% Penicilin-Streptamicin (Gibco, Thermofisher Scientific). […] (Selleckchem, Germany). The pre-treatment with the drug preceded the infection.
(§7) ED cells were pre-treated with drug for 30 minutes before infection, and treatment maintained during infection.
(§8) Cells were infected with EHV-1 at 1 MOI for 2 hours. Infective EHV-1 viral particles were produced in ED cells with an EHV-1 molecular clone purchased from ATCC (VR-2248). After infection cells were washed twice with HBSS to remove unbound virus and fresh complete media and fresh drug was replaced in each well. Treatment was maintained during 6 days without addition of fresh drug.
(§9) After 6 days post-infection reazurin-based cell viability assays (PrestoBlue, Thermofisher Scientific) were used to evaluate the increased cell numbers in the same conditions as indicated above for qPCR quantification. […] 15 μl of Prestoblue reagent was added directly to the assay wells and absorbance measured at 570 nm after 24 hours of incubation with the Prestoblue reagent. All the absorbance values were corrected by removing the baseline, absorbance values of the Prestoblue reagent incubated 24 hours without cells. The results were analysed by Prism software by using the four-parameter function (log (drug) vs. response assuming a variable slope).
(§10) Equine Dermal cells (ATCC CCL57) (10^5 cells/cm^2) were seeded in 96 well plates 24 to 72 hours before infection in complete media and incubated in a humid chamber at 37° C. and 5% CO2 until 95%-99% confluent monolayers were attained. Complete media was composed of DMEM medium (Gibco, Thermofisher Scientific) with 10% of Inactivated Fetal bovine serum (Gibco, Thermofisher Scientific), 1% of Glutamax (Gibco, Thermofisher Scientific) and 1% Penicilin-Streptamicin (Gibco, Thermofisher Scientific). […] (Selleckchem, Germany). The pre-treatment with the drug preceded the infection.

EHV-1 [6] = test: cells; settings: Equus caballus, 144 h, read-out: IC50 for EHV-1 by cell viability
Procedure: as §6, §7, §8, §9, §10

NEV [7] = test: Antiviral drug screen: PrestoBlue cell viability of NEV-infected Equine Dermal cells; assay type: cell-based, New Equine Virus; settings: ED cells, 9 days
Description: (§5) Complete media was composed of DMEM medium (Gibco, Life Technologies) with 10% Inactivated Fetal bovine serum (Gibco, Life Technologies), 1% Glutamax (Gibco, Life Technologies) and 1% Penicillin-Streptamicin (Gibco, Life Technologies).
The antiviral effect of adefovir dipivoxil, as well as other are antiviral drugs approved by FDA or EMA such as Zidovudine (nucleoside reverse transcription inhibitor), Nevirapine (non-nucleoside reverse transcription inhibitor), Indinavir sulphate (a HIV-1 protease inhibitor), Darunavir Ethanolate (a HIV-1 protease inhibitor), Daclastavir (HCV NS5A inhibitor), Cyclosporin A (immunosuppressive agent) and the drug that is being evaluated in pre-clinical/clinical assays as antivirals, such as Tenofovir (a nucleoside reverse transcription inhibitor), was evaluated (FIGS. 4A and 4B). Cells were pre-treated with drugs at 1 or 10 μM in quintuplicates for one hour and infected with NEV (1130 PFU per well) for 2 hours. After 2 hours fresh media with drugs was replaced. Cells were then incubated for 9 days in a humid chamber 37° C. and 5% CO2. After 9 days cellular viability of treated cells was compared to those of non infected cells and infected and not treated cells by using PrestoBlue cell viability reagent. […]

NEV [8] = test: Dose response: PrestoBlue cell viability of NEV-infected ED cells; assay type: cell-based, New Equine Virus
Procedure: as §5
(Selleckchem, Germany). The pre-treatment with adefovir dipivoxil (Selleckchem, Germany) preceded the infection. To determine drug IC50 ten 1:2 serial dilutions ranging from 5 to 2560 nM concentrations were performed in quintuplicates for each drug concentration. ED cells were pre-treated with drug for 60 minutes before infection, and treatment maintained during infection. NEV viral particles (10 μl containing 1130 PFU) were added to the cell culture media for 2 hours. […] Eleven days after infection, cells were screened for viability by using the PrestoBlue cell viability assay (Molecular Probes, Life Technologies) accordingly to manufacturer instructions. Absorbance (570 nm) of adefovir dipivoxil treated cells was compared to those of non-infected and/or untreated NEV-infected cells.

[9] = Cytotoxicity (CC50) in MacF macrophage cell line, PrestoBlue; assay type: cell-based; settings: horse (equine), MacF cells, treated for 7 days
Description: (Selleckchem, Germany) for 7 days.

EIAVWYO [10] = test: IC50 for EIAVWYO viral replication in ED cells by RT qPCR; assay type: cell-based; settings: Equine infectious anemia virus, 168 h, read-out: IC50 (EIAVWYO viral replication)
Procedure: Furthermore, to better evaluate the effect of the drug on EIAVWYO viral replication on ED cells, we have determined the IC50 of adefovir dipivoxil. […] (Selleckchem, Germany) for 60 minutes. The pre-treatment with Adefovir dipivoxil (Selleckchem, Germany) preceded the infection. Eleven serial dilutions ranging from 0.01 to 10,000 nM (0.01, 19.53, 39.06, 78.130, 156.250, 312.5, 625, 1250, 2500, 5000 and 10000 nM) were performed in triplicates for each drug concentration. Treatment was maintained during infection. EIAVWYO viral particles (10 μl containing 1.9×10^5 viral particles) were added in each well of a 96-well plate and incubated for 2 hours. […] For quantification, a standard curve of an EIAV plasmid DNA was used. To obtain the standard curve, seven 1:10 dilutions in duplicates were tested in parallel. Samples were tested in triplicates. The standard curve obtained (with R^2 0.994, Efficiency 96.56%) allowed us to quantify the viral particles.

NEV [11] = test: Dose response: PrestoBlue cell viability of NEV-infected equine macrophage cell line (MacF); assay type: cell-based, New Equine Virus
Procedure: An equine macrophage cell line (MacF) was spontaneously immortalized from a NEV-seropositive horse accordingly the procedures reported in Fidalgo-Carvalho et. al, 2009.
Cells were incubated 24 to 72 hours before NEV infection until 95%-99% confluent cell monolayers were attained.
(Selleckchem, Germany), as reported above for ED cells. To determine drug IC50 in MacF cell line, eleven serial dilutions of 1:4 ranging from 0.05 nM to 28 μM were performed in quintuplicates for each drug concentration. MacF Cells were pre-treated with drug for 60 minutes before infection, and treatment was maintained during infection. NEV viral particles (10 μl containing 1130 PFU) were added to the cell culture media for 2 hours. […] Eleven days after infection, cells were screened for viability by using the PrestoBlue cell viability assay (Molecular Probes, Life Technologies) accordingly to manufacturer instructions. Absorbance (570 nm) of adefovir dipivoxil treated cells was compared to those of non-infected and/or untreated NEV infected cells.

SMILES: CC(C)(C)NC(=O)[C@@H]1CN(Cc2cccnc2)CCN1C[C@@H](O)C[C@@H](Cc1ccccc1)C(=O)N[C@H]1c2ccccc2C[C@H]1O [Indinavir]
- EIAV viral replication decreased to (from 10^8) (EIAVWYO [1]): 10^4 viral particles/mL

SMILES: Cc1cn([C@H]2C[C@H](N=[N+]=[N-])[C@@H](CO)O2)c(=O)[nH]c1=O [zidovudine]
- EIAV viral replication reduced to (from 10^8) (EIAVWYO [1]): 10^5 viral particles/mL

SMILES: CC(C)CN(C[C@@H](O)[C@H](Cc1ccccc1)NC(=O)O[C@H]1CO[C@H]2OCC[C@H]21)S(=O)(=O)c1ccc(N)cc1 [Darunavir]
- EIAV viral replication decreased to (from 10^8) (EIAVWYO [1]): 10^3 viral particles/mL

SMILES: CC(C)OC(=O)OCOP(=O)(CO[C@H](C)Cn1cnc2c(N)ncnc21)OCOC(=O)OC(C)C.O=C(O)/C=C/C(=O)O [tenofovir disoproxil fumarate]
- CC50 at 3 days (in vitro): 117000 nM
- pIC50 (EHV-1 [2]; average of two independent experiments): 5.95
- pIC50 (EHV-1 [3]; average of four independent experiments): 5.13
- pIC50 (EHV-1 [4]): 4.64
- therapeutic index (CC50/IC50) for EHV-1 (EHV-1 [5]): 8.334
- pIC50 (EHV-1 [6]): 4.86

SMILES: C[C@H](Cn1cnc2c(N)ncnc21)OCP(=O)(O)O [tenofovir, [(2R)-1-(6-aminopurin-9-yl)propan-2-yl]oxymethylphosphonic acid]
- EIAV viral replication reduced to (from 10^8) (EIAVWYO [1]): 10^5 viral particles/mL
- cell viability of NEV infected cells (NEV [7]; drug at 10 μM): increased the cell viability of infected cells

SMILES: CC(C)(C)C(=O)OCOP(=O)(COCCn1cnc2c(N)ncnc21)OCOC(=O)C(C)(C)C [adefovir dipivoxil, 9-[2-[[bis[(pivaloyloxy)methoxy]phosphinyl]-methoxy]ethyl]adenine]
- CC50 at 6 days (in vitro; Equine Dermal (ED) cells (ATCC CCL57)): 142000 nM
- effect on EIAV replication (EIAVWYO [1]; ED cells, 1 or 10 μM, single dose, up to 20 days): blocked the EIAV replication
- virus recovered from treated cells (EIAVWYO [1]; day 5, one of three replicates): 10 viral particles/mL
- virus recovered from treated cells (EIAVWYO [1]; day 15, one of three replicates): 100 viral particles/mL
- cell viability (absorbance) compared with non-infected mock cells (NEV [8]; 320 nM, 11 days post NEV infection): very similar absorbance values
- pIC50 (NEV [8]; Equus caballus, 264 h, 11 days after infection): 6.95
- CC50 at 7 days [9]: 207000 nM
- pIC50 (EHV-1 [2]; average of three independent experiments): 6.85
- pIC50 (EIAVWYO [10]): 8.47
- pIC50 (EHV-1 [3]; three independent experiments): 8.36
- pIC50 (EHV-1 [4]): 6.76
- cellular viability of NEV infected cells (NEV [7]; drug at 1 or 10 μM, vs non infected and untreated infected cells): completely reverted the effect of NEV on cellular viability
- cell viability (absorbance) compared with Mock MacF cells (NEV [11]; 14 μM, 11 days post NEV infection): very similar (or even slightly higher)
- pIC50 (NEV [11]; Equus caballus, Macrophage, 264 h, MacF cells, 11 days after infection): 5.42
- therapeutic index (CC50/IC50) for EHV-1 (EHV-1 [5]): 1162.3
- pIC50 (EHV-1 [6]): 6.91
